Data published in PubChem BioAssay AID256 (DTP/NCI, 2004).
Several values for one entry are separate records, joined by “and”; a condition that tells them apart may be missing. Identical values can stand only once. Toxic doses and inconclusive results are not listed. Rule for the calls: active = survival T/C of 150% or more; inactive = T/C below 125% in these data.

System: CD2F1 mice, L1210 leukemia ip, survival T/C
Assay: NCI In Vivo Anticancer Drug Screen. Data for tumor model L1210 Leukemia (intraperitoneal) in CD2F1 (CDF1) mice
Settings: higher = longer survival
Method in brief: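 Read-out first: treated-group measurement over vehicle-control measurement, expressed as a ratio. Animals bore a transplanted tumor line and were dosed with compound or vehicle.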

[1] = endpoint: mean survival time, dose: 75.0 mg/kg/injection, schedule: Q01DX001 (ip), vehicle: saline
[2] = endpoint: mean survival time, dose: 150.0 mg/kg/injection, schedule: Q01DX001 (ip), vehicle: saline
[3] = endpoint: mean survival time, dose: 100.0 mg/kg/injection, schedule: Q04DX002 (ip), vehicle: saline with Tween-80
[4] = endpoint: mean survival time, dose: 200.0 mg/kg/injection, schedule: Q04DX002 (ip), vehicle: saline with Tween-80
[5] = endpoint: mean survival time, dose: 100.0 mg/kg/injection, schedule: Q01DX001 (ip), vehicle: saline
[6] = endpoint: mean survival time, dose: 200.0 mg/kg/injection, schedule: Q01DX001 (ip), vehicle: saline
[7] = endpoint: mean survival time, dose: 400.0 mg/kg/injection, schedule: Q01DX001 (ip), vehicle: saline
[8] = endpoint: mean survival time, dose: 100.0 mg/kg/injection, schedule: Q04DX003 (ip), vehicle: saline with Tween-80
[9] = endpoint: mean survival time, dose: 200.0 mg/kg/injection, schedule: Q04DX003 (ip), vehicle: saline with Tween-80
[10] = endpoint: mean survival time, dose: 400.0 mg/kg/injection, schedule: Q04DX003 (ip), vehicle: saline with Tween-80
[11] = endpoint: mean survival time, dose: 100.0 mg/kg/injection, schedule: Q01DX009 (ip), vehicle: saline with Tween-80
[12] = endpoint: mean survival time, dose: 200.0 mg/kg/injection, schedule: Q01DX009 (ip), vehicle: saline with Tween-80
[13] = endpoint: mean survival time, dose: 400.0 mg/kg/injection, schedule: Q01DX009 (ip), vehicle: saline with Tween-80
[14] = endpoint: mean survival time, dose: 12.5 mg/kg/injection, schedule: Q01DX005 (ip), vehicle: distilled water + Tween-80
[15] = endpoint: mean survival time, dose: 25.0 mg/kg/injection, schedule: Q01DX005 (ip), vehicle: distilled water + Tween-80
[16] = endpoint: mean survival time, dose: 50.0 mg/kg/injection, schedule: Q01DX005 (ip), vehicle: distilled water + Tween-80
[17] = endpoint: mean survival time, dose: 100.0 mg/kg/injection, schedule: Q01DX005 (ip), vehicle: distilled water + Tween-80
[18] = endpoint: mean survival time, dose: 200.0 mg/kg/injection, schedule: Q01DX005 (ip), vehicle: distilled water + Tween-80
[19] = endpoint: mean survival time, dose: 100.0 mg/kg/injection, schedule: Q01DX001 (ip), vehicle: saline with Tween-80
[20] = endpoint: mean survival time, dose: 200.0 mg/kg/injection, schedule: Q01DX001 (ip), vehicle: saline with Tween-80
[21] = endpoint: mean survival time, dose: 400.0 mg/kg/injection, schedule: Q01DX001 (ip), vehicle: saline with Tween-80

Measured: T/C

O=C1C=CC(=O)C(Br)C1Br (configuration not stated)
inactive: endpoint: mean survival time, dose: 37.5 mg/kg/injection, schedule: Q01DX009 (ip), vehicle: saline 93 % of control | endpoint: mean survival time, dose: 37.5 mg/kg/injection, schedule: Q04DX003 (ip), vehicle: saline 95 % of control | [1] 97 % of control | endpoint: mean survival time, dose: 75.0 mg/kg/injection, schedule: Q01DX009 (ip), vehicle: saline 93 % of control | endpoint: mean survival time, dose: 75.0 mg/kg/injection, schedule: Q04DX003 (ip), vehicle: saline 103 % of control | [2] 101 % of control | endpoint: mean survival time, dose: 150.0 mg/kg/injection, schedule: Q01DX009 (ip), vehicle: saline 94 % of control | endpoint: mean survival time, dose: 150.0 mg/kg/injection, schedule: Q04DX003 (ip), vehicle: saline 93 % of control

CO[C@@]12[C@@H]3N[C@@H]3CN1C1=C(C(=O)C(NCCN(C)C)=C(C)C1=O)[C@@H]2COC(N)=O
inactive: endpoint: mean survival time, dose: 1.5 mg/kg/injection, schedule: Q01DX001 (ip), vehicle: water 106 % of control | endpoint: mean survival time, dose: 3.0 mg/kg/injection, schedule: Q01DX001 (ip), vehicle: distilled water + Tween-80 116 % of control | endpoint: mean survival time, dose: 3.0 mg/kg/injection, schedule: Q01DX001 (ip), vehicle: water 106 % of control | endpoint: mean survival time, dose: 6.0 mg/kg/injection, schedule: Q01DX001 (ip), vehicle: water 116 % of control | endpoint: mean survival time, dose: 24.0 mg/kg/injection, schedule: Q01DX001 (ip), vehicle: distilled water + Tween-80 96 % of control | endpoint: mean survival time, dose: 24.0 mg/kg/injection, schedule: Q01DX001 (ip), vehicle: water 93 % of control

OCC(O)C(O)C(O)C(/C=N/Nc1ccccc1)=N\Nc1ccccc1 (configuration not stated)
inactive: [1] 95 % of control | [2] 100 % of control | endpoint: mean survival time, dose: 300.0 mg/kg/injection, schedule: Q01DX001 (ip), vehicle: saline 97 % of control

CSc1nc(NC2OC(CO)C(O)C(O)C2O)c(Br)c(=O)n1C (configuration not stated)
inactive: endpoint: median survival time, dose: 12.5 mg/kg/injection, schedule: Q01DX005 (ip), vehicle: saline with Tween-80 98 % of control | endpoint: median survival time, dose: 25.0 mg/kg/injection, schedule: Q01DX005 (ip), vehicle: saline with Tween-80 100 % of control | endpoint: median survival time, dose: 50.0 mg/kg/injection, schedule: Q01DX005 (ip), vehicle: saline with Tween-80 96 % of control | endpoint: median survival time, dose: 100.0 mg/kg/injection, schedule: Q01DX005 (ip), vehicle: saline with Tween-80 101 % of control

CC12CC(c3ccccc3)C(C)(C(c3ccccc3)=C1c1ccccc1)C2(O)c1ccccc1 (configuration not stated)
inactive: [3] 94 % of control | [4] 86 % of control | endpoint: mean survival time, dose: 400.0 mg/kg/injection, schedule: Q04DX002 (ip), vehicle: saline with Tween-80 94 % of control

C/C(=N/O)c1ccc2c(c1)C(C)c1ccccc1-2 (configuration not stated)
inactive: [5] 112 % of control | [6] 110 % of control | [7] 104 % of control

CC12CCC(O1)C1C(=O)NC(=O)C12 (configuration not stated)
inactive: [8] 94 % of control | [9] 89 % of control | [10] 98 % of control

CCCCCCCCC(O)C(O)CCCCCCCC(=O)O (configuration not stated)
inactive: endpoint: mean survival time, dose: 100.0 mg/kg/injection, schedule: Q04DX003 (ip), vehicle: other 93 % of control | endpoint: mean survival time, dose: 200.0 mg/kg/injection, schedule: Q04DX003 (ip), vehicle: other 98 % of control | endpoint: mean survival time, dose: 400.0 mg/kg/injection, schedule: Q04DX003 (ip), vehicle: other 95 % of control

Nc1nc(N)c2c(n1)NCN(CCc1c(Cl)cccc1Cl)C2
inactive: endpoint: mean survival time, dose: 0.75 mg/kg/injection, schedule: Q01DX009 (ip), vehicle: distilled water + Tween-80 98 % of control | endpoint: mean survival time, dose: 1.5 mg/kg/injection, schedule: Q01DX009 (ip), vehicle: distilled water + Tween-80 102 % of control | endpoint: mean survival time, dose: 3.0 mg/kg/injection, schedule: Q01DX009 (ip), vehicle: distilled water + Tween-80 98 % of control | endpoint: mean survival time, dose: 6.0 mg/kg/injection, schedule: Q01DX009 (ip), vehicle: distilled water + Tween-80 98 % of control | endpoint: mean survival time, dose: 12.0 mg/kg/injection, schedule: Q01DX009 (ip), vehicle: distilled water + Tween-80 104 % of control | endpoint: mean survival time, dose: 24.0 mg/kg/injection, schedule: Q01DX009 (ip), vehicle: distilled water + Tween-80 98 % of control | endpoint: mean survival time, dose: 37.5 mg/kg/injection, schedule: Q01DX009 (ip), vehicle: distilled water + Tween-80 100 % of control | endpoint: mean survival time, dose: 75.0 mg/kg/injection, schedule: Q01DX009 (ip), vehicle: distilled water + Tween-80 97 % of control

CC(C)(C)/[N+]([O-])=C/Cc1ccccc1
inactive: endpoint: mean survival time, dose: 25.0 mg/kg/injection, schedule: Q04DX002 (ip), vehicle: saline with Tween-80 97 % of control | endpoint: mean survival time, dose: 50.0 mg/kg/injection, schedule: Q04DX002 (ip), vehicle: saline with Tween-80 110 % of control | [3] 110 % of control

c1cc(Oc2ccc3ccncc3c2)c2ccncc2c1
inactive: [8] 95 % of control | [9] 100 % of control | [10] 101 % of control

Cc1cc2oc(=O)cc(O)c2c(=O)o1
inactive: [11] 96 % of control | [8] 94 % of control | [12] 96 % of control | [9] 97 % of control | [10] 98 % of control

CCN(CC)CCOC(=O)C(c1ccccc1)C(C)(O)CC (configuration not stated)
inactive: endpoint: mean survival time, dose: 25.0 mg/kg/injection, schedule: Q01DX009 (ip), vehicle: saline 101 % of control | endpoint: mean survival time, dose: 50.0 mg/kg/injection, schedule: Q01DX009 (ip), vehicle: saline 87 % of control | endpoint: mean survival time, dose: 100.0 mg/kg/injection, schedule: Q01DX009 (ip), vehicle: saline 104 % of control | endpoint: mean survival time, dose: 100.0 mg/kg/injection, schedule: Q04DX003 (ip), vehicle: saline 88 % of control

Cc1ccoc1
inactive: endpoint: median survival time, dose: 8.3 mg/kg/injection, schedule: Q03HX015 (ip), vehicle: saline with Tween-80 101 % of control | endpoint: median survival time, dose: 16.6 mg/kg/injection, schedule: Q03HX015 (ip), vehicle: saline with Tween-80 103 % of control | endpoint: median survival time, dose: 33.3 mg/kg/injection, schedule: Q03HX015 (ip), vehicle: saline with Tween-80 117 % of control | endpoint: median survival time, dose: 66.6 mg/kg/injection, schedule: Q03HX015 (ip), vehicle: saline with Tween-80 124 % of control

C[N+](C)(C)/N=C\c1cccc2ccccc12
inactive: endpoint: mean survival time, dose: 6.25 mg/kg/injection, schedule: Q01DX009 (ip), vehicle: saline with Tween-80 111 % of control | endpoint: mean survival time, dose: 12.5 mg/kg/injection, schedule: Q01DX009 (ip), vehicle: saline with Tween-80 107 % of control | endpoint: mean survival time, dose: 25.0 mg/kg/injection, schedule: Q01DX009 (ip), vehicle: saline with Tween-80 104 % of control

CC1=N/C(=C/c2ccccc2)C(=O)O1
inactive: [11] 97 % of control | [12] 98 % of control | [13] 88 % of control

CCCCCCCCCCC(Sc1n[nH]c(=O)[nH]c1=O)C(=O)OCC (configuration not stated)
inactive: [14] 97 % of control | [15] 97 % of control | [16] 95 % of control | [17] 95 % of control | [18] 97 % of control

CCOC(=O)C(C)Sc1nn(C2OC(COC(=O)c3ccccc3)C(OC(=O)c3ccccc3)C2OC(=O)c2ccccc2)c(=O)[nH]c1=O (configuration not stated)
inactive: [14] 97 % of control | [15] 97 % of control | [16] 95 % of control | [17] 95 % of control | [18] 89 % of control

CSc1ncc(C=O)c(N)n1
inactive: [19] 96 % of control | [20] 97 % of control | [21] 95 % of control

CC1=C(N=[N+]=[N-])C(=O)c2ccccc2C1=O
inactive: [3] 91 % of control | [4] 100 % of control

COC(=O)C(CCl)NC(N)=O (configuration not stated)
inactive: [5] 104 % of control | [6] 101 % of control | [7] 104 % of control

Cc1cc([N+](=O)[O-])ccc1NC(=S)NC(=O)COc1ccccc1
inactive: [19] 95 % of control | [11] 93 % of control and 102 % of control | [3] 95 % of control | [8] 98 % of control | [20] 89 % of control | [12] 93 % of control | [4] 91 % of control | [9] 97 % of control | [21] 87 % of control | [13] 92 % of control | [10] 93 % of control

CN(C)N=Nc1ccc(NC=O)cc1
inactive: endpoint: mean survival time, dose: 4.68 mg/kg/injection, schedule: Q01DX009 (ip), vehicle: Klucel (hydroxypropylcellulose) (HPC) 104 % of control | endpoint: mean survival time, dose: 9.37 mg/kg/injection, schedule: Q01DX009 (ip), vehicle: Klucel (hydroxypropylcellulose) (HPC) 115 % of control and 110 % of control
